From patent US4885299A, “2-(2,3-dihydro-2-oxo-3-benzofuranyl)acetic acids antihypoxic and nootropic effects having” (ADIR Et Cie, priority 1987, dated 1989)
Structures can show the parent of a compound that is named as a salt.

Columns and labels:
[1] = tested on: Acute hypoxia in mice; survival of the brain; experiment: Acute hypoxia in mice (hypobaric); brain survival time to final respiratory gasp; type: in vivo, Male CD1 mice (Charles River); conditions: 30 minutes before hypoxia, mice; for change in vivo at 300 mg/kg: 300 mg/kg I.P.
Procedure: (§1) The compounds of the present invention were tested in respect of their capacity to prolong the survival of cerebral tissue during acute hypoxia in mice, or to maintain the level of tissue energy-rich compounds in rats subjected to a fall in the oxygen supply [Pharmacology of Cerebral Ischemia, p. 334-339 (1968) Elsevier Science Publishers B.V., J. Krieglstein ed.]. […] Forsch. Drug. Res. (1986), 36 II No. 9, p. 1314-1320].
The survival of the brain is assessed by measuring the time at which the final respiratory gasp is observed.
The survival time of a treated batch is compared with that of a control batch receiving only the solvent.
The percentage increase in the survival time after the animals are treated with the compounds of the invention is shown in Table II.

[2] = tested on: brain energy-rich compounds (ATP, ADP, AMP); experiment: Acute hypoxia in rats; protection of tissue energy-rich compounds in brain (ATP, energy content); type: in vivo, Male Fischer 344 rats (Charles River); conditions: 3% oxygen for 2 minutes
Procedure: as §1
Whereas the control rats breath a gaseous mixture containing 21% of oxygen and 79% of nitrogen, the rats subjected to hypoxia breath a mixture of 3% oxygen and 97% nitrogen for 2 minutes.
At the end of the hypoxic period, the animals are rapidly sacrificed by total immersion in liquid nitrogen. The frozen brain is removed and the energy-rich compounds (ATP, ADP, AMP) are extracted and assayed by the luciferin luminescence method.
The tissue energy content (EC) is calculated according to ATKINSON's formula: [formula]

[3] = Mus musculus, ip, 100 mg/kg I.P., read-out: Percentage increase in the survival time
[4] = Mus musculus, ip, read-out: Percentage increase in the survival time
[5] = Mus musculus, ip, 10 mg/kg I.P., read-out: Percentage increase in the survival time
[6] = Mus musculus, ip, 30 mg/kg I.P., read-out: Percentage increase in the survival time

| SMILES | change in vivo at 100 mg/kg [1, 3] | change in vivo at 30 mg/kg [1, 6] | also measured |
| --- | --- | --- | --- |
| O=C(O)CC1(c2ccccc2)C(=O)Oc2ccc(Cl)cc21 (stereo not shown) [Example 1, 2-(5-Chloro-2,3-dihydro-2-oxo-3-phenyl-3-benzofuranyl)acetic acid] | 46% |  | % inhibition of the effects of hypoxia, ATP ([2]; 100 mg/kg I.P.): 54%; % inhibition of the effects of hypoxia, EC (tissue energy content) ([2]; 100 mg/kg I.P.): 61.7% |
| O=C(O)CC1(c2ccccc2)C(=O)Oc2ccc(F)cc21 (stereo not shown) [Example 2, 2-(2,3-Dihydro-5-fluoro-2-oxo-3-phenyl-3-benzofuranyl)acetic acid] | 38% |  |  |
| O=C(O)CC1(c2ccccc2)C(=O)Oc2ccccc21 (stereo not shown) [Example 3, 2-(2,3-Dihydro-2-oxo-3-phenyl-3-benzofuranyl) acetic acid] | 29% |  |  |
| O=C(O)CC1(c2ccc(Cl)cc2)C(=O)Oc2ccccc21 (stereo not shown) [Example 4, 2-[3-(4-Chlorophenyl)-2,3-dihydro-2-oxo-3-benzofuranyl)acetic acid] | 17% |  |  |
| O=C(O)CC1(c2ccccc2)C(=O)Oc2ccc(O)cc21 (stereo not shown) [Example 5, 2-(2,3-Dihydro-5-hydroxy-2-oxo-3-phenyl-3-benzofuranyl)acetic acid] | 69% |  |  |
| COc1ccc2c(c1)C(CC(=O)O)(c1ccccc1)C(=O)O2 (stereo not shown) [Example 6, 2-(2,3-Dihydro-5-methoxy-2-oxo-3-phenyl-3-benzofuranyl)acetic acid] | 41% |  |  |
| O=C(CC1(c2ccccc2)C(=O)Oc2ccc(O)cc21)OCc1ccccc1 (stereo not shown) [Example 7] | 14% |  | change in vivo at 300 mg/kg [1, 4]: 156% |
| CCOC(=O)CC1(c2ccccc2)C(=O)Oc2ccc(Cl)cc21 (stereo not shown) [Example 8, 2-(5-Chloro-2,3-dihydro-2-oxo-3-phenyl-3-benzofuranyl)acetic acid ethyl ester] | 52% |  |  |
| O=C(CC1(c2ccccc2)C(=O)Oc2ccc(Cl)cc21)N1CCN(c2ccc(C(F)(F)F)cn2)CC1 (stereo not shown) [Example 9, 2-(5-Chloro-2,3-dihydro-2-oxo-3-phenyl-3-benzofuranyl)-1-[4-(5-trifluoromethyl-2-pyridyl)piperazinyl]-1-oxoethane] |  |  | Percentage increase in the survival time ([1]; 3 mg/kg I.P.): +65%; Percentage increase in the survival time ([1]; 10 mg/kg I.P.): +82%; Percentage increase in the survival time ([1]; 30 mg/kg I.P.): +77%; Percentage increase in the survival time ([1]; 100 mg/kg I.P.): greater than 180%; Percentage increase in the survival time ([1]; 100 mg/kg I.P., listed as Ex. 9): +183%; % inhibition of the effects of hypoxia, ATP ([2]; 30 mg/kg I.P.): 65.6%; % inhibition of the effects of hypoxia, EC (tissue energy content) ([2]; 30 mg/kg I.P.): 60.1% |
| CCN(CC)C(=O)CC1(c2ccccc2)C(=O)Oc2ccc(Cl)cc21 (stereo not shown) [Example 10, N,N-Diethyl-2-(5-chloro-2,3-dihydro-2-oxo-3-phenyl-3-benzofuranyl)acetamide] | 97% |  |  |
| CC(C)C[C@@H](C(=O)O)N(C)C(=O)CC1(c2ccccc2)C(=O)Oc2ccc(Cl)cc21 (stereo partly shown) [Example 11, N-Methyl-N-[2-(5-chloro-2,3-dihydro-2-oxo-3-phenyl-3-benzofuranyl)acetyl]leucine] | 159% |  |  |
| CCN(CC)CCN(C)C(=O)CC1(c2ccccc2)C(=O)Oc2ccc(Cl)cc21 (stereo not shown) [Example 12, N-Methyl-N-diethylaminoethyl-2-(5-chloro-2,3-dihydro-2-oxo-3-phenyl-3-benzofuranyl)acetamide hydrochloride] | > 180% | 84% | change in vivo at 3 mg/kg ([1]; Mus musculus, ip, 3 mg/kg I.P., read-out: Percentage increase in the survival time): 32%; change in vivo at 10 mg/kg [1, 5]: 41% |
| O=C(O)[C@@H]1CCCN1C(=O)CC1(c2ccccc2)C(=O)Oc2ccc(Cl)cc21 (stereo partly shown) [Example 13, N-[2-(5-chloro-2,3-dihydro-2-oxo-3-phenyl-3-benzofuranyl)acetyl]proline] | 8% |  |  |
| O=C(CC1(c2ccccc2)C(=O)Oc2ccc(Cl)cc21)N1CCOCC1 (stereo not shown) [Example 14, 2-(5-Chloro-2,3-dihydro-2-oxo-3-phenyl-3-benzofuranyl)-1-morpholino-1-oxoethane] | 88% |  |  |
| O=C(CC1(c2ccccc2)C(=O)Oc2ccc(Cl)cc21)N1CCN(CCO)CC1 (stereo not shown) [Example 15, 2-(5-Chloro-2,3-dihydro-2-oxo-3-phenyl-3-benzofuranyl)-1-[4-(2-hydroxyethyl)piperazinyl]-1-oxoethane hydrochloride] | > 130% | 41% | change in vivo at 10 mg/kg [1, 5]: 34%; change in vivo at 200 mg/kg ([1]; Mus musculus, ip, 200 mg/kg I.P., read-out: Percentage increase in the survival time): 203% |
| O=C(CC1(c2ccccc2)C(=O)Oc2ccc(Cl)cc21)N1CCN(Cc2ccccc2)CC1 (stereo not shown) [Example 17, 2-(5-Chloro-2,3-dihydro-2-oxo-3-phenyl-3-benzofuranyl)-1-(4-benzylpiperazinyl)-1-oxoethane] | 66% | 40% |  |
| O=C(CC1(c2ccccc2)C(=O)Oc2ccc(Cl)cc21)N1CCN(c2cccc(C(F)(F)F)c2)CC1 (stereo not shown) [Example 18, 2-(5-Chloro-2,3-dihydro-2-oxo-3-phenyl-3-benzofuranyl)-1-[4-(3-trifluoromethylphenyl)piperazinyl)-1-oxoethane hydrochloride] | 88% | 53% | change in vivo at 10 mg/kg [1, 5]: 41%; change in vivo at 300 mg/kg [1, 4]: 103% |
| Cc1cccc(N2CCN(C(=O)CC3(c4ccccc4)C(=O)Oc4ccc(Cl)cc43)CC2)c1 (stereo not shown) [Example 19, 2-(5-Chloro-2,3-dihydro-2-oxo-3-phenyl-3-benzofuranyl)-1-[4-(3-methylphenyl)piperazinyl]-1oxoethane hydrochloride] | 76% |  |  |
| CN(CC(=O)O)C(=O)CC1(c2ccccc2)C(=O)Oc2ccccc21 (stereo not shown) [Example 21, N-Methyl-N-[2-(2,3-dihydro-2-oxo-3-phenyl-3-benzofuranyl)acetyl]glycine] | 14% |  |  |
| O=C(CC1(c2ccccc2)C(=O)Oc2ccccc21)N1CCN(Cc2ccc3c(c2)OCO3)CC1 (stereo not shown) [Example 22, 2-(2,3-Dihydro-2-oxo-3-phenyl-3-benzofuranyl)-1-[4-(3,4-methylenedioxybenzyl)piperazinyl]-1-oxoethane hydrochloride] | 126% | 42% | Percentage increase in the survival time ([1]; 100 mg/kg I.P., listed as Ex. 22, hydrochloride): +126%; change in vivo at 10 mg/kg [1, 5]: 11% |
| Cc1cccc(CN2CCN(C(=O)CC3C(=O)Oc4ccccc43)CC2)c1 (stereo not shown) [Example 25, 2-(2,3-Dihydro-2-oxo-3-benzofuranyl)-1-[4-(3-methylbenzyl)piperazinyl]-1-oxoethane hydrochloride] |  |  | % inhibition of the effects of hypoxia, ATP ([2]; 100 mg/kg I.P.): 50.5%; % inhibition of the effects of hypoxia, EC (tissue energy content) ([2]; 100 mg/kg I.P.): 52.6% |
| Cc1cccc(N2CCN(C(=O)CC3C(=O)Oc4ccc(Cl)cc43)CC2)c1 (stereo not shown) [Example 26, 2-(5-Chloro-2,3-dihydro-2-oxo-3-benzofuranyl)-1-[4-(3-methylphenyl)piperazinyl]-1-oxoethane hydrochloride] | > 130% | 53% | change in vivo at 10 mg/kg [1, 5]: 52%; change in vivo at 300 mg/kg [1, 4]: 190% |
| O=C(CC1(c2ccccc2)C(=O)Oc2ccc(Cl)cc21)N1CCN(c2cc(C(F)(F)F)ccn2)CC1 (stereo not shown) [Example 27, 2-(5-Chloro-2,3-dihydro-2-oxo-3-phenyl-3-benzofuranyl)-1-[4-(4-trifluoromethyl-2-pyridyl)piperazinyl]-1-oxoethane] | 76% | 59% | change in vivo at 10 mg/kg [1, 5]: 36% |
| CN(C(=O)CC1(c2ccccc2)C(=O)Oc2ccc(Cl)cc21)[C@@H](Cc1ccccc1)C(=O)O (stereo partly shown) [Example 28, N-[2-(5-Chloro-2,3-dihydro-2-oxo-3-phenyl-3-benzofuranyl)acetyl]-N-methylphenylalanine] | 90% |  |  |
| O=C(O)CN1CCN(C(=O)CC2(c3ccccc3)C(=O)Oc3ccc(Cl)cc32)CC1 (stereo not shown) [Example 29, 2-(5-Chloro-2,3-dihydro-2-oxo-3-phenyl-3-benzofuranyl)-1-(4-carboxymethylpiperazinyl)-1-oxoethane hydrochloride] | 66% | 32% |  |
| COc1cccc(C2CCCN(C(=O)CC3(c4ccccc4)C(=O)Oc4ccc(Cl)cc43)C2)c1 (stereo not shown) [Example 30, 2-(5-Chloro-2,3-dihydro-2-oxo-3-phenyl-3-benzofuranyl)-1-[3-(3-methoxyphenyl)piperidyl]-1-oxoethane] | 103% | 36% | change in vivo at 10 mg/kg [1, 5]: 32% |
| CCN1CCCC1CN(C)C(=O)CC1(c2ccccc2)C(=O)Oc2ccc(Cl)cc21 (stereo not shown) [Example 32, 2-(5-Chloro-2-oxo-3-phenyl-3-benzofuranyl)-1-[(1-ethylpyrrolidinyl)methyl]methylamino-1-oxoethanehydrochloride] |  | 26% |  |
